How the values were obtained:
Test in all cases: relative viability (nuclei count vs DMSO), 5 days (fraction); higher = more cells survive
BAM7 + Foretinib = compound: CCOC1=CC=CC=C1N=NC2=C(NN(C2=O)C3=NC(=CS3)C4=CC=CC=C4)C [BAM7] + COc1cc2c(Oc3ccc(NC(=O)C4(C(=O)Nc5ccc(F)cc5)CC4)cc3F)ccnc2cc1OCCCN1CCOCC1 [Foretinib] (partner 0.25 µM)
How it was run: (§1)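 Lung cancer cell lines, seeded in 1536-well plates, were treated the following day by pin tool with a single drug or with five library-drug doses (not always all listed) in √10 steps on top of a fixed anchor-drug dose. Cells were fixed and nuclei stained in one step after 5 days, and nuclei were counted. Relative viability is the nuclei count for treated wells divided by that for vehicle wells, reported as medians of duplicate plates.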

BAM7 + Lapatinib = compound: CCOC1=CC=CC=C1N=NC2=C(NN(C2=O)C3=NC(=CS3)C4=CC=CC=C4)C [BAM7] + CS(=O)(=O)CCNCc1ccc(-c2ccc3ncnc(Nc4ccc(OCc5cccc(F)c5)c(Cl)c4)c3c2)o1 [Lapatinib] (partner 2 µM)
How it was run: as §1

BAM7 = compound: CCOC1=CC=CC=C1N=NC2=C(NN(C2=O)C3=NC(=CS3)C4=CC=CC=C4)C [BAM7]
How it was run: (§2)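 Viability was defined as treated-well nuclei divided by vehicle-well nuclei, with the median taken over replicate plates. Cells from lung cancer lines sat overnight at 37 °C in 1536-well plates, received five √10-spaced library-drug doses by pinning on vehicle-anchored plates, and grew 5 days without medium change before one-step fixation, permeabilisation and Hoechst staining, 4× imaging and MetaXpress nuclear counts. Only plates with control CV under 25% and at least one doubling were kept.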

[1] = compound: CCn1c(-c2nonc2N)nc2c(C#CC(C)(C)O)ncc(OC[C@H]3CCCNC3)c21
How it was run: as §2

UMC-11
relative viability (BAM7 + Foretinib; first compound 0.5 µM): 1.03 | relative viability (BAM7 + Foretinib; first compound 5 µM): 1.09 | relative viability (BAM7 + Foretinib; first compound 15.81 µM): 1.13 | relative viability (BAM7 + Foretinib; first compound 50 µM): 1.07 | relative viability (BAM7 + Lapatinib; first compound 0.5 µM): 1.02 | relative viability (BAM7 + Lapatinib; first compound 5 µM): 0.981 | relative viability (BAM7 + Lapatinib; first compound 15.81 µM): 1.12 | relative viability (BAM7 + Lapatinib; first compound 50 µM): 1.15 | relative viability (BAM7; 0.5 µM): 1.01 | relative viability (BAM7; 5 µM): 1.1 | relative viability (BAM7; 15.81 µM): 1.06 | relative viability (BAM7; 50 µM): 1.07 | relative viability ([1]; 0.01 µM): 0.955 | relative viability ([1]; 0.03162 µM): 1.02 | relative viability ([1]; 0.1 µM): 0.957 | relative viability ([1]; 0.3162 µM): 0.982 | relative viability ([1]; 1 µM): 0.943
